From PubChem BioAssay AID208 (DTP/NCI, 2004)
Results filed as inconclusive are left out.

Tested on: HT29 intrarenal xenograft, nude mice, tumor weight change
Test: NCI In Vivo Anticancer Drug Screen. Data for tumor model HT29;CX-1 Human Adenocarcinoma (MER+) (intrarenal inoculation) in NU/NU BALB/C (nude) mice
Conditions: endpoint: mean tumor weight change, higher = larger tumour
Description: The antitumor activity of compounds was measured in mice bearing transplantable tumors. Survival or tumor size were measured and the results are expressed as the measurement made in the treated group (T) divided by the measurement made in the vehicle treated control group (C). The tumor model used in this assay is HT29;CX-1 Human Adenocarcinoma (MER+) (intrarenal inoculation) in NU/NU BALB/C (nude) mice

[1] = dose: 200.0 mg/kg/injection, schedule: Q04DX004 (sc), vehicle: Klucel (hydroxypropylcellulose) (HPC)
[2] = dose: 150.0 mg/kg/injection, schedule: Q04DX004 (sc), vehicle: saline with Tween-80
[3] = dose: 300.0 mg/kg/injection, schedule: Q04DX004 (sc), vehicle: saline with Tween-80
[4] = dose: 600.0 mg/kg/injection, schedule: Q04DX004 (sc), vehicle: saline with Tween-80
[5] = dose: 150.0 mg/kg/injection, schedule: Q04DX004 (sc), vehicle: Klucel (hydroxypropylcellulose) (HPC)
[6] = dose: 200.0 mg/kg/injection, schedule: Q04DX004 (sc), vehicle: saline with Tween-80
[7] = dose: 400.0 mg/kg/injection, schedule: Q04DX004 (sc), vehicle: saline with Tween-80
[8] = dose: 2400.0 mg/kg/injection, schedule: Q04DX004 (sc), vehicle: saline with Tween-80
[9] = dose: 150.0 mg/kg/injection, schedule: Q04DX004 (sc), vehicle: saline
[10] = dose: 300.0 mg/kg/injection, schedule: Q04DX004 (sc), vehicle: saline

Question: Which T/C (dose: 25.0 mg/kg/injection, schedule: Q04DX004 (sc), vehicle: Klucel (hydroxypropylcellulose) (HPC)) does the source give for `C=CC(C)(C)n1cc(C2=C(O)C(=O)C(c3cn(C(C)(C)C=C)c4ccccc34)=C(O)C2=O)c2ccccc21` here?
Answer: Its T/C is 113 % of control.

Question: And the T/C (dose: 100.0 mg/kg/injection, schedule: Q04DX004 (sc), vehicle: Klucel (hydroxypropylcellulose) (HPC))?
Answer: The T/C was 118 % of control.

Question: And the T/C [1]?
Answer: The T/C was 121 % of control.

Question: Which results are given for `CC1(C)CC2(C)OC2C2(C1)N=NC(=Nc1ccccc1)O2` (configuration not stated)?
Answer: T/C (dose: 75.0 mg/kg/injection, schedule: Q04DX004 (sc), vehicle: saline with Tween-80): 16 % of control; T/C [2]: 124 % of control; T/C [3]: 89 % of control; T/C [4]: 69 % of control

Question: `C=C(C)C(=O)O[C@H]1CC2=C[C@@H](C[C@@]3(C)O[C@@H]3[C@H]3OC(=O)C(=C)[C@@H]31)OC2=O` was tested. Which T/C (dose: 75.0 mg/kg/injection, schedule: Q04DX004 (sc), vehicle: Klucel (hydroxypropylcellulose) (HPC)) did it give?
Answer: Its T/C is 75 % of control.

Question: And the T/C [5]?
Answer: The T/C was 121 % of control.

Question: Which T/C [6] does the source give for `CC(=O)Oc1ccc[nH]c1=O` here?
Answer: Its T/C is 88 % of control.

Question: What about the T/C [7] of the same molecule?
Answer: The T/C was 104 % of control.

Question: What about the T/C (dose: 800.0 mg/kg/injection, schedule: Q04DX004 (sc), vehicle: saline with Tween-80) of the same molecule?
Answer: Its T/C is 122 % of control.

Question: Which T/C (dose: 0.75 mg/kg/injection, schedule: Q04DX004 (sc), vehicle: saline with Tween-80) does the source give for `CC[C@@]1(O)C(=O)OCc2c1cc1n(c2=O)Cc2cc3ccccc3nc2-1` here?
Answer: The T/C was 75 % of control.

Question: What about the T/C (dose: 3.0 mg/kg/injection, schedule: Q04DX004 (sc), vehicle: saline with Tween-80) of the same molecule?
Answer: Its T/C is 49 % of control.

Question: What about the T/C (dose: 6.0 mg/kg/injection, schedule: Q04DX004 (sc), vehicle: saline with Tween-80) of the same molecule?
Answer: Its T/C is 48 % of control.

Question: And the T/C (dose: 32.0 mg/kg/injection, schedule: Q04DX004 (sc), vehicle: saline with Tween-80)?
Answer: The T/C was 8 % of control.

Question: How did the T/C [8] turn out when `C[C@]12CC[C@H](O)CC1=CC[C@@H]1[C@@H]2CC[C@]2(C)C(=O)CC[C@@H]12` was run?
Answer: The T/C was 73 % of control.

Question: For `C[C@@H]1CC[C@]2(C)CC[C@]3(C)C(=CC[C@@H]4[C@@]5(C)CC[C@@H](OC(=O)c6ccc(O)cc6)C(C)(C)[C@@H]5C[C@H](O)[C@]43C)[C@@H]2[C@H]1C(=O)O`, which T/C (dose: 0.62 mg/kg/injection, schedule: Q04DX004 (sc), vehicle: saline with Tween-80) is on record?
Answer: The T/C was 79 % of control.

Question: What about the T/C (dose: 1.25 mg/kg/injection, schedule: Q04DX004 (sc), vehicle: saline with Tween-80) of the same molecule?
Answer: The T/C was 109 % of control.

Question: And the T/C (dose: 2.5 mg/kg/injection, schedule: Q04DX004 (sc), vehicle: saline with Tween-80)?
Answer: Its T/C is 59 % of control.

Question: How did the T/C (dose: 12.5 mg/kg/injection, schedule: Q01DX010 (ip), vehicle: water) turn out when `Cc1c(-c2ccc(-c3ccccc3F)cc2)nc2ccc(F)cc2c1C(=O)O` was run?
Answer: Its T/C is 59 % of control.

Question: And the T/C (dose: 53.3 mg/kg/injection, schedule: Q01DX009 (ip), vehicle: water)?
Answer: The T/C was 30 % of control.

Question: For `Cn1c(=O)[nH]c2nncnc2c1=O`, which T/C (dose: 60.0 mg/kg/injection, schedule: Q04DX004 (sc), vehicle: water) is on record?
Answer: The T/C was 124 % of control.

Question: `COc1cc(C(C)(C)C)cc(OC)c1C(O)(c1c(OC)cc(C(C)(C)C)cc1OC)c1c(OC)cc(C(C)(C)C)cc1OC` was tested. Which T/C (dose: 50.0 mg/kg/injection, schedule: Q04DX004 (sc), vehicle: saline with Tween-80) did it give?
Answer: The T/C was 51 % of control.

Question: And the T/C (dose: 100.0 mg/kg/injection, schedule: Q04DX004 (sc), vehicle: saline with Tween-80)?
Answer: The T/C was 79 % of control.

Question: And the T/C [6]?
Answer: The T/C was 63 % of control.

Question: What about the T/C [7] of the same molecule?
Answer: Its T/C is 68 % of control.

Question: What about the T/C [4] of the same molecule?
Answer: The T/C was 102 % of control.

Question: And the T/C (dose: 1200.0 mg/kg/injection, schedule: Q04DX004 (sc), vehicle: saline with Tween-80)?
Answer: The T/C was 80 % of control.

Question: And the T/C [8]?
Answer: Its T/C is 61 % of control.

Question: What does the source list for `COc1cc(C)c2c(c1C=O)Oc1c(c(C)c(O)c3c1C(O)OC3=O)OC2=O` (configuration not stated)?
Answer: T/C (dose: 50.0 mg/kg/injection, schedule: Q01DX010 (sc), vehicle: saline): 42 % of control; T/C (dose: 100.0 mg/kg/injection, schedule: Q01DX010 (sc), vehicle: saline): 81 % of control; T/C (dose: 400.0 mg/kg/injection, schedule: Q01DX010 (sc), vehicle: saline): 38 % of control

Question: Which results are given for `COc1cc(O)c2c(O)c3c(c4c2c1[C@]1(C4)C(C)=CCCC1(C)C)[C@H](O)[C@@]1(O)CC(=O)C(C(N)=O)=C(O)[C@@]1(O)C3=O`?
Answer: T/C (dose: 9.4 mg/kg/injection, schedule: Q04DX004 (ip), vehicle: saline with Tween-80): 59 % of control; T/C (dose: 18.8 mg/kg/injection, schedule: Q04DX004 (ip), vehicle: saline with Tween-80): 87 % of control; T/C (dose: 37.5 mg/kg/injection, schedule: Q04DX004 (ip), vehicle: saline with Tween-80): 101 % of control

Question: Which results are given for `Nc1ncnc2c1ccn2C1OC(CO)C(O)C1O` (configuration not stated)?
Answer: T/C (dose: 2.0 mg/kg/injection, schedule: Q01DX010 (sc), vehicle: Klucel (hydroxypropylcellulose) (HPC)): 96 % of control; T/C (dose: 4.0 mg/kg/injection, schedule: Q01DX010 (sc), vehicle: Klucel (hydroxypropylcellulose) (HPC)): 81 % of control

Question: `CC1CCC(n2cnc3c(Cl)ncnc32)O1` (configuration not stated) was tested. Which T/C [5] did it give?
Answer: Its T/C is 76 % of control.

Question: What about the T/C (dose: 300.0 mg/kg/injection, schedule: Q04DX004 (sc), vehicle: Klucel (hydroxypropylcellulose) (HPC)) of the same molecule?
Answer: The T/C was 80 % of control.

Question: And the T/C (dose: 600.0 mg/kg/injection, schedule: Q04DX004 (sc), vehicle: Klucel (hydroxypropylcellulose) (HPC))?
Answer: The T/C was 64 % of control.

Question: What does the source list for `OCCOCCN1CCN(CCCN2c3ccccc3Sc3ccc(C(F)(F)F)cc32)CC1`?
Answer: T/C (dose: 12.0 mg/kg/injection, schedule: Q01DX010 (sc), vehicle: saline): 23 % of control; T/C (dose: 24.0 mg/kg/injection, schedule: Q01DX010 (sc), vehicle: saline): 47 % of control; T/C (dose: 48.0 mg/kg/injection, schedule: Q01DX010 (sc), vehicle: saline): 42 % of control

Question: With `BrCCC1(CCBr)CCCCC1` as the molecule, how does the T/C (dose: 300.0 mg/kg/injection, schedule: Q04DX004 (sc), vehicle: water) read?
Answer: The T/C was 97 % of control.

Question: And the T/C (dose: 600.0 mg/kg/injection, schedule: Q04DX004 (sc), vehicle: water)?
Answer: Its T/C is 77 % of control.

Question: What about the T/C (dose: 1200.0 mg/kg/injection, schedule: Q04DX004 (sc), vehicle: water) of the same molecule?
Answer: The T/C was 58 % of control.

Question: And the T/C (dose: 2400.0 mg/kg/injection, schedule: Q04DX004 (sc), vehicle: water)?
Answer: The T/C was 76 % of control.

Question: Which results are given for `Oc1ccc(CCl)c2cccnc12`?
Answer: T/C (dose: 75.0 mg/kg/injection, schedule: Q04DX004 (sc), vehicle: saline): 76 % of control; T/C [9]: 110 % of control; T/C [10]: 89 % of control

Question: `Nc1ccc(Cn2ccc3c4c(N)nc(N)nc4ccc32)cc1` was tested. Which T/C (dose: 18.75 mg/kg/injection, schedule: Q04DX004 (sc), vehicle: saline with Tween-80) did it give?
Answer: The T/C was 60 % of control.

Question: What about the T/C (dose: 37.5 mg/kg/injection, schedule: Q04DX004 (sc), vehicle: saline with Tween-80) of the same molecule?
Answer: Its T/C is 58 % of control.

Question: What does the source list for `CN(N=O)C(=O)N[C@@H](C=O)[C@@H](O)[C@H](O)[C@H](O)CO`?
Answer: T/C [9]: 111 % of control; T/C [10]: 38 % of control

Question: `O=C(O)C1(NO)CCCCC1` was tested. Which T/C [1] did it give?
Answer: Its T/C is 168 % of control.

Question: What about the T/C (dose: 400.0 mg/kg/injection, schedule: Q04DX004 (sc), vehicle: Klucel (hydroxypropylcellulose) (HPC)) of the same molecule?
Answer: The T/C was 122 % of control.

Question: And the T/C (dose: 1600.0 mg/kg/injection, schedule: Q04DX004 (sc), vehicle: Klucel (hydroxypropylcellulose) (HPC))?
Answer: The T/C was 92 % of control.

Question: Which results are given for `COC1/C=C/C=C(/C)Cc2cc(O)c(Cl)c(c2)N(C)C(=O)CC(OC(=O)C(C)C)C2(C)OC2C(C)C2CC1(O)NC(=O)O2` (configuration not stated)?
Answer: T/C (dose: 2.0 mg/kg/injection, schedule: Q04DX004 (sc), vehicle: saline + alcohol): 82 % of control; T/C (dose: 4.0 mg/kg/injection, schedule: Q04DX004 (sc), vehicle: saline + alcohol): 98 % of control; T/C (dose: 8.0 mg/kg/injection, schedule: Q04DX004 (sc), vehicle: saline + alcohol): 72 % of control

Question: What does the source list for `CC(=O)Oc1[nH]c(=O)c2cccc3c2c1CCC3`?
Answer: T/C [2]: 207 % of control; T/C [3]: 105 % of control

Question: With `O=C(CCCN1CCC(C(O)c2ccc(F)cc2)CC1)c1ccc(F)cc1` (configuration not stated) as the molecule, how does the T/C (dose: 12.5 mg/kg/injection, schedule: Q04DX004 (ip), vehicle: saline with Tween-80) read?
Answer: The T/C was 52 % of control.

Question: And the T/C (dose: 25.0 mg/kg/injection, schedule: Q04DX004 (ip), vehicle: saline with Tween-80)?
Answer: The T/C was 71 % of control.

Question: What about the T/C (dose: 50.0 mg/kg/injection, schedule: Q04DX004 (ip), vehicle: saline with Tween-80) of the same molecule?
Answer: The T/C was 106 % of control.

Question: And the T/C (dose: 100.0 mg/kg/injection, schedule: Q04DX004 (ip), vehicle: saline with Tween-80)?
Answer: Its T/C is 43 % of control.
